Measurements from patent US9890166B2, “Imidazopyrrolidine derivatives and their use in the treatment of disease” (NOVARTIS AG, priority 2013, dated 2018).

Legend:
[1] = tested on: THP-1 cells; assay: Cell growth inhibition assay (CellTiter-Glo), THP-1; conditions: for GI50: Homo sapiens, THP-1, read-out: THP-1 GI50; for THP-1 TGI: THP-1 cells, total growth inhibition, CellTiter-Glo;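 on all read-outs here: viability read as cellular ATP luminescence after 4 days, 3-fold dilution series from 10 µM, DMSO vehicle-treated cells taken as 100%, cell-free medium wells as −100%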
[2] = tested on: K-562 cells; assay: Cell growth inhibition assay (CellTiter-Glo), K-562; conditions: for GI50: Homo sapiens, K562, read-out: K-562 GI50; for K-562 TGI: K-562 cells, total growth inhibition, CellTiter-Glo;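 on all read-outs here: cellular ATP measured by luminescence after 4 days of exposure, 3-fold dilution series from 10 µM, DMSO vehicle-treated cells define 100%, cell-free medium wells −100%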
[3] = target: BRD3 (His-Brd3(20-477)) (Homo sapiens (Human), UniProt Q15059); assay: TR-FRET in-vitro binding assay for BRD3; conditions: single determination or n ≧ 2 independent determinations, read-out: Biochemical IC50 BRD3
Sequence of BRD3 (His-Brd3(20-477)) (Q15059 20-477): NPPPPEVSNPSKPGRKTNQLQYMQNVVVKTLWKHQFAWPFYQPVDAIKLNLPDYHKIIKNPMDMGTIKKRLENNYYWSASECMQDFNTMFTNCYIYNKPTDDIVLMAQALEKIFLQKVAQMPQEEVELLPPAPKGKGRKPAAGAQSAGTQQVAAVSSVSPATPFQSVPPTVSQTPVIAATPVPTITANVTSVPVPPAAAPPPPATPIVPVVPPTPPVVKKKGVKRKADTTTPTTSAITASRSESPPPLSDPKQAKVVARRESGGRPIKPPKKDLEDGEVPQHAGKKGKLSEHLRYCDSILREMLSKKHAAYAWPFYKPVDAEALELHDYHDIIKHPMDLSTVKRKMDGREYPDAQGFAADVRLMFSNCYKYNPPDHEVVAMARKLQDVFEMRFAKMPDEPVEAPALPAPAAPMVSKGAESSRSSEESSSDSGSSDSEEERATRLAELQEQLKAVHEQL
How it was run: (§1)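 His-tagged BRD2, BRD3 and BRD4 fragments tested by TR-FRET at 8 compound concentrations, with DMSO stocks at 10 mM. Read on EnVision after 35 min incubation at 30° C.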

[4] = target: CREBBP bromodomain (His-CREBBP(1081-1197)) (Homo sapiens (Human), UniProt Q92793); assay: AlphaScreen in-vitro binding assay for CREBBP; conditions: single determination or n ≧ 2 independent determinations, read-out: Biochemical IC50 CREBBP
Sequence of CREBBP bromodomain (His-CREBBP(1081-1197)) (Q92793 1081-1197): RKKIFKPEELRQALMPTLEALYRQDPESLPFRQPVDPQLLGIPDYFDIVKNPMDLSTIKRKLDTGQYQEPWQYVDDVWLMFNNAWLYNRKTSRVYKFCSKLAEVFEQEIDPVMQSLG
How it was run: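 Detection used nickel-chelate acceptor plus streptavidin donor AlphaScreen beads, 1 h room temperature. Percent inhibition fitted by non-linear regression to IC50.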

[5] = target: BRD2 (His-Brd2(60-472)) (Homo sapiens (Human), UniProt P25440); assay: TR-FRET in-vitro binding assay for BRD2; conditions: single determination or n ≧ 2 independent determinations, read-out: Biochemical IC50 BRD2
Sequence of BRD2 (His-Brd2(60-472)) (P25440 60-472): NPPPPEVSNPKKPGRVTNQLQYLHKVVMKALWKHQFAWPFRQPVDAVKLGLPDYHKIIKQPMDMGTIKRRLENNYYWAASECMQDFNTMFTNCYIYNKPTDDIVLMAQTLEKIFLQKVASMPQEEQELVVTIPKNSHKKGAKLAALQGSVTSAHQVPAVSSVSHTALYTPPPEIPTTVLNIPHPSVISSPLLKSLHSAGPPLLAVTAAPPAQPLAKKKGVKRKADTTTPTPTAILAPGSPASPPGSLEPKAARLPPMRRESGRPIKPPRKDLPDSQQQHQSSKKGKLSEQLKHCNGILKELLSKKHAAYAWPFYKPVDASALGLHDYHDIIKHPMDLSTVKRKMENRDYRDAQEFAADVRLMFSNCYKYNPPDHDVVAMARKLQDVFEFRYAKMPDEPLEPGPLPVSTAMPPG
How it was run: as §1

[6] = target: nuclear BRD4-NUT foci in HCC2494 NUT midline carcinoma cells (Homo sapiens, UniProt O60885); assay: cell-based
[7] = tested on: MV-4-11 cells; assay: Cell growth inhibition assay (CellTiter-Glo), MV-4-11; conditions: for GI50: Homo sapiens, MV4-11, read-out: MV-4-11 GI50; for MV-4-11 TGI: MV-4-11 cells, total growth inhibition, CellTiter-Glo;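 on all read-outs here: cellular ATP luminescence after 4 days, 3-fold dilution series from 10 µM top dose, vehicle (0.1% DMSO) set to 100%, cell-free medium set to −100%, day 0 corrected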
[8] = target: BRD4 (His-Brd4(44-477)) (Homo sapiens (Human), UniProt O60885); assay: TR-FRET in-vitro binding assay for BRD4; conditions: single determination or n ≧ 2 independent determinations, read-out: Biochemical IC50 BRD4
How it was run: as §1

| Structure (SMILES) | GI50 [1] [µM] | GI50 [2] [µM] | IC50 [3] [µM] | IC50 [4] [µM] | IC50 [5] [µM] | IC50 [6] [µM] | GI50 [7] [µM] | IC50 [8] [µM] | THP-1 TGI [1] [µM] | K-562 TGI [2] [µM] | MV-4-11 TGI [7] [µM] |
| --- | --- | --- | --- | --- | --- | --- | --- | --- | --- | --- | --- |
| Cc1cc(N2C(=O)c3nc(-c4ncco4)n(C(C)C)c3C2c2ccc(Cl)cc2)cn2c(C)nnc12 (centres unmarked) [Example 15, 6-(4-chlorophenyl)-5-(3,8-dimethyl-[1,2,4]triazolo[4,3-a]pyridin-6-yl)-1-isopropyl-2-(oxazol-2-yl)-5,6-dihydropyrrolo[3,4-d]imidazol-4(1H)-one] | 0.0719 | 0.318 | 0.041 | 16.1 | 0.048 | 0.08 | 0.042 | 0.037 | 0.132 | >10 | 0.08625 |
| COc1ccc(-c2nc3c(n2C)C(c2ccc(Cl)cc2)N(c2cc(C)c4nnc(C)n4c2)C3=O)cn1 (centres unmarked) [Example 16, 6-(4-chlorophenyl)-5-(3,8-dimethyl-[1,2,4]triazolo[4,3-a]pyridin-6-yl)-2-(6-methoxypyridin-3-yl)-1-methyl-5,6-dihydropyrrolo[3,4-d]imidazol-4(1H)-one] | 0.22 | 0.562 | 0.047 | > 24.1 | 0.049 | 0.263 | 0.0743 | 0.045 | 0.37 | >10 | 0.1255 |
| COc1cc(N2C(=O)c3nc(C4CC4)n(C(C)C)c3C2c2ccc(Cl)cc2)cn2c(C)nnc12 (centres unmarked) [Example 17, 6-(4-chlorophenyl)-2-cyclopropyl-1-isopropyl-5-(8-methoxy-3-methyl-[1,2,4]triazolo[4,3-a]pyridin-6-yl)-5,6-dihydropyrrolo[3,4-d]imidazol-4(1H)-one] | 0.323 | 1.08 | 0.075 | > 37 | 0.1 | 0.323 | 0.167 | 0.041 | 0.7045 | >10 | 0.3165 |
| CCn1c(-c2ccc(OC)nc2)nc2c1C(=O)N(c1cc(C)c(=O)n(C)c1)C2c1ccc(Cl)cc1 (centres unmarked) [Example 38, 6-(4-chlorophenyl)-5-(1,5-dimethyl-6-oxo-1,6-dihydropyridin-3-yl)-3-ethyl-2-(6-methoxypyridin-3-yl)-5,6-dihydropyrrolo[3,4-d]imidazol-4(3H)-one] | 0.0749 | 0.271 | 0.076 | 2 | 0.0925 | 0.0245 | 0.0301 | 0.078 | 0.118 | >10 | 0.0489 |
| CCn1c(-c2ccc(OC)nc2)nc2c1C(=O)N(c1cc(C)c(=O)n(C)c1)[C@@H]2c1ccc(Cl)cc1 [Example 39, (R)-6-(4-chlorophenyl)-5-(1,5-dimethyl-6-oxo-1,6-dihydropyridin-3-yl)-3-ethyl-2-(6-methoxypyridin-3-yl)-5,6-dihydropyrrolo[3,4-d]imidazol-4(3H)-one] | 0.0262 | 0.072 | 0.032 | 0.91 | 0.024 | 0.0211 | 0.0117 | 0.0285 | 0.0481 | >10 | 0.0239 |
| CCn1c(-c2cccnc2OC)nc2c1C(=O)N(c1cc(C)c(=O)n(C)c1)[C@@H]2c1ccc(Cl)cc1 [Example 41, (R)-6-(4-chlorophenyl)-5-(1,5-dimethyl-6-oxo-1,6-dihydropyridin-3-yl)-3-ethyl-2-(2-methoxypyridin-3-yl)-5,6-dihydropyrrolo[3,4-d]imidazol-4(3H)-one] | 0.0138 | 0.0452 | 0.017 | 0.43 | 0.0155 | 0.007 | 0.00672 | 0.016 | 0.0306 | >10 | 0.011 |

Now from value to molecule, other results behind:

| GI50 [1] [µM] | GI50 [2] [µM] | IC50 [3] [µM] | IC50 [4] [µM] | IC50 [5] [µM] | IC50 [6] [µM] | GI50 [7] [µM] | IC50 [8] [µM] | Structure (SMILES) | THP-1 TGI [1] [µM] | K-562 TGI [2] [µM] | MV-4-11 TGI [7] [µM] |
| --- | --- | --- | --- | --- | --- | --- | --- | --- | --- | --- | --- |
| 0.0743 | 0.274 | 0.061 | 3.4 | 0.065 | 0.0642 | 0.0535 | 0.069 | CCn1c(-c2ccnn2C)nc2c1C(=O)N(c1cc(C)c(=O)n(C)c1)C2c1ccc(Cl)cc1 (centres unmarked) [Example 42, 6-(4-chlorophenyl)-5-(1,5-dimethyl-6-oxo-1,6-dihydropyridin-3-yl)-3-ethyl-2-(1-methyl-1H-pyrazol-5-yl)-5,6-dihydropyrrolo[3,4-d]imidazol-4(3H)-one] | 0.126 | >10 | 0.1023 |
| 0.0905 | 0.356 | 0.055 | 32.3 | 0.0595 | 0.0529 | 0.0662 | 0.064 | Cc1cc(N2C(=O)c3nc(-c4nccs4)n(C4CC4)c3C2c2ccc(Cl)cc2)cn(C)c1=O (centres unmarked) [Example 43, 6-(4-chlorophenyl)-1-cyclopropyl-5-(1,5-dimethyl-6-oxo-1,6-dihydropyridin-3-yl)-2-(thiazol-2-yl)-5,6-dihydropyrrolo[3,4-d]imidazol-4(1H)-one] | 0.1625 | >10 | 0.09955 |
| 0.0328 | 0.126 | 0.017 | 1 | 0.017 | 0.0497 | 0.0225 | 0.016 | COc1ncccc1-c1nc2c(n1C(C)C)C(=O)N(c1cc(C)c(=O)n(C)c1)[C@@H]2c1ccc(Cl)cc1 [Example 45, (R)-6-(4-chlorophenyl)-5-(1,5-dimethyl-6-oxo-1,6-dihydropyridin-3-yl)-3-isopropyl-2-(2-methoxypyridin-3-yl)-5,6-dihydropyrrolo[3,4-d]imidazol-4(3H)-one] | 0.0605 | >10 | 0.0439 |
| 0.145 | 0.499 | 0.077 | 2 | 0.084 | 0.226 | 0.0653 | 0.078 | Cc1cc(N2C(=O)c3[nH]c(C4CC4)nc3C2c2ccc(Cl)cc2)cn(C)c1=O (centres unmarked) [Example 46, 6-(4-chlorophenyl)-2-cyclopropyl-5-(1,5-dimethyl-6-oxo-1,6-dihydropyridin-3-yl)-5,6-dihydropyrrolo[3,4-d]imidazol-4(3H)-one] | 0.305 | >10 | 0.108 |
| 0.0743 | 0.305 | 0.038 | 1.1 | 0.039 | 0.0813 | 0.0425 | 0.04 | Cc1cc(N2C(=O)c3[nH]c(C4CC4)nc3[C@H]2c2ccc(Cl)cc2)cn(C)c1=O [Example 47, R-6-(4-chlorophenyl)-2-cyclopropyl-5-(1,5-dimethyl-6-oxo-1,6-dihydropyridin-3-yl)-5,6-dihydropyrrolo[3,4-d]imidazol-4(3H)-one] | 0.141 | >10 | 0.1028 |
| 0.981 | 2.48 | 0.063 | > 37 | 0.08 | 0.71 | 0.271 | 0.035 | COc1ccc(-c2nc3c(n2C(C)C)C(c2ccc(Cl)cc2)N(c2cc(OC)c4nnc(C)n4c2)C3=O)cn1 (centres unmarked) [Example 52, 6-(4-chlorophenyl)-1-isopropyl-5-(8-methoxy-3-methyl-[1,2,4]triazolo[4,3-a]pyridin-6-yl)-2-(6-methoxypyridin-3-yl)-5,6-dihydropyrrolo[3,4-d]imidazol-4(1H)-one] | 1.92 | >10 | 0.409 |
| 1.27 | 7.99 | 0.2 | > 37 | 0.22 | 1.33 | 0.505 | 0.092 | COc1cc(N2C(=O)c3nc(C4=CCOCC4)n(C(C)C)c3C2c2ccc(Cl)cc2)cn2c(C)nnc12 (centres unmarked) [Example 53, 6-(4-chlorophenyl)-2-(3,6-dihydro-2H-pyran-4-yl)-1-isopropyl-5-(8-methoxy-3-methyl-[1,2,4]triazolo[4,3-a]pyridin-6-yl)-5,6-dihydropyrrolo[3,4-d]imidazol-4(1H)-one] | 3.74 | >10 | 0.939 |
